Results taken from patent publication US7022648B2, “Plant seeds treated with N,N′-substituted ureas” (Stoller Enterprises, Inc., priority 1996, dated 2006).
Several values for one entry are separate records, joined by “and”; a condition that tells them apart may be missing. Equal entries are not always repeated.

Key:
Type in all cases: in vivo
Peanuts [1] = assay: Greenhouse pot test, foliar treatment 0.01 M diformylurea; conditions: foliar treated, three leaf stage, 30 days
Protocol: (§1) Based upon the foregoing preliminary work, additional experiments to investigate the effect of diformylurea on other plant species was undertaken. These experiments were also designed to compare the effect of treating seeds as described above with foliar treatment. Wheat, corn and peanuts were selected for the next phase of this work. Diformylurea was prepared by reacting formic acid and urea at a molar ratio of 2:1 as described above. An aqueous solution containing diformylurea at a concentration of 0.01 M was prepared. For the seed treatment portion of the experiments, the seeds to be treated were soaked in the foregoing solution for about 24 hours before planting. The control seeds were again soaked in water for the same time. Both control and treated seeds were planted in 1 gallon greenhouse pots. Five seeds were planted in each pot. Each pot was thinned to two plants after germination. For the foliar treatment portion of the experiment, plants grown from untreated seeds were sprayed with a solution containing 0.01 M. diformylurea at the three leaf stage. All plants were watered and fertilized as required. Thirty days after planting, the plants were harvested and the roots and shoots examined. The mass of both the roots and shoots and the total mass of the plant in each pot were determined.

Wheat [2] = assay: as above; conditions: foliar treated, three leaf stage, 30 days
Protocol: as §1

Corn [3] = assay: as above; conditions: foliar treated, three leaf stage, 30 days
Protocol: as §1

Rice [4] = assay: Preliminary greenhouse pot test, seeds soaked in diformylurea solution, root and shoot mass; conditions: seed soak 24 h, 30 days
Protocol: (§2) In a preliminary experiment to determine the agricultural value of the N,N′-diformylurea prepared above, a concentrate was prepared by mixing 200 grams diformylurea and 200 grams formic acid, adjusting the ph to about 5.5 by the addition of potassium hydroxide and adding sufficient water to make 1 liter. […] Low, medium and high dilution aqueous solutions were prepared by diluting, respectively, 0.8 grams, 8.0 grams and 40.0 grams of the concentrate per liter of final solution. […] The foregoing solutions were used to coat corn, soybean, cotton and rice seeds prior to planting. Coating was achieved by soaking the seeds in the foregoing solutions for about 24 hours. Sufficient solution was used to keep the seeds immersed. Control seeds were soaked in water for the same time. Untreated or control seeds, together with seeds treated by the low, medium and high dilution solutions, were planted in 1 gallon greenhouse pots. Six pots were used for each dilution or control with five seeds planted per pot. The plants were thinned to two plants per pot after emergence. The plants were watered and fertilized as required. After 30 days the plants were harvested and the roots and shoots examined. The roots and shoots were weighed separately and the root/shoot ratio determined. The treated plants were generally characterized by both greater root mass and shoot mass when compared to the controls. The root/shoot ratio for most of the treated plants was greater than that for the controls.

Corn [5] = assay: as above; conditions: seed soak 24 h, 30 days
Protocol: as §2

Peanuts [6] = assay: Greenhouse pot test, seed treatment 0.01 M diformylurea; conditions: seed treated, 24 h soak, 30 days
Protocol: as §1

Wheat [7] = assay: as above; conditions: seed treated, 24 h soak, 30 days
Protocol: as §1

Corn [8] = assay: as above; conditions: seed treated, 24 h soak, 30 days
Protocol: as §1

Rice [9] = assay: Single application to rice at tillering, yield; conditions: 50 grams per acre at tillering
Description: The reaction products of the present invention, specifically N,N′-diformylurea, have been used to enhance the growth of plants. […] For example, a single application to rice at the rate of 50 grams per acre at tillering has produced a 25 percent increase in yield.

O=CNC(=O)NC=O [diformylurea, N,N′-diformylurea]
Percent Change v. Control, Roots (Peanuts [1]): 92% | Percent Change v. Control, Shoots (Peanuts [1]): 108% | Percent Change v. Control, Total (Peanuts [1]): 100% | Root/Shoot Ratio (Peanuts [1]): 1.02 | Roots (gm), Average (Peanuts [1]; average of samples): 32.74 gm | Shoots (gm), Average (Peanuts [1]; average of samples): 32.15 gm | Total (gm), Average (Peanuts [1]; average of samples): 64.89 gm | Roots (gm) (Peanuts [1]; single sample (pot)): 27.67 gm and 35.04 gm and 37.38 gm and 31.10 gm and 31.69 gm and 33.55 gm | Shoots (gm) (Peanuts [1]; single sample (pot)): 28.38 gm and 30.34 gm and 33.84 gm and 32.35 gm and 36.17 gm and 31.82 gm | Total (gm) (Peanuts [1]; single sample (pot)): 56.05 gm and 65.38 gm and 71.22 gm and 63.45 gm and 67.86 gm and 65.37 gm | Percent Change v. Control, Roots (Wheat [2]): 14% | Percent Change v. Control, Shoots (Wheat [2]): 108% | Percent Change v. Control, Total (Wheat [2]): 26% | Root/Shoot Ratio (Wheat [2]): 4.06 | Roots (gm), Average (Wheat [2]; average of samples): 23.93 gm | Shoots (gm), Average (Wheat [2]; average of samples): 5.89 gm | Total (gm), Average (Wheat [2]; average of samples): 29.83 gm | Shoots (gm) (Wheat [2]; single sample (pot)): 7.48 gm and 7.53 gm and 4.44 gm and 4.62 gm and 4.00 gm and 7.28 gm | Percent Change v. Control, Roots (Corn [3]): 11% | Percent Change v. Control, Shoots (Corn [3]): 103% | Percent Change v. Control, Total (Corn [3]): 46% | Root/Shoot Ratio (Corn [3]): 0.90 | Roots (gm), Average (Corn [3]; average of samples): 51.38 gm | Shoots (gm), Average (Corn [3]; average of samples): 57.31 gm | Total (gm), Average (Corn [3]; average of samples): 108.69 gm | Roots (gm) (Corn [3]; single sample (pot)): 42.40 gm and 48.44 gm and 52.48 gm and 56.22 gm and 42.18 gm and 66.57 gm | Shoots (gm) (Corn [3]; single sample (pot)): 61.80 gm and 46.17 gm and 50.59 gm and 61.12 gm and 67.57 gm and 56.61 gm | Total (gm) (Corn [3]; single sample (pot)): 104.20 gm and 84.61 gm and 103.07 gm and 117.34 gm and 109.75 gm and 123.18 gm | crown roots on plants grown from treated seeds (Rice [4]): crown roots were noticed | Root/Shoot Ratio (Rice [4]; High dilution, 0.068 M): 2.10 | Roots (gm) (Rice [4]; High dilution, 0.068 M): 0.82 gm | Shoots (gm) (Rice [4]; High dilution, 0.068 M): 0.39 gm | Total (gm) (Rice [4]; High dilution, 0.068 M): 1.21 gm | Root/Shoot Ratio (Rice [4]; Low dilution, 0.0013 M): 1.78 | Roots (gm) (Rice [4]; Low dilution, 0.0013 M): 0.61 gm | Shoots (gm) (Rice [4]; Low dilution, 0.0013 M): 0.34 gm | Total (gm) (Rice [4]; Low dilution, 0.0013 M): 0.95 gm | Root/Shoot Ratio (Rice [4]; Medium dilution, 0.013 M): 1.86 | Roots (gm) (Rice [4]; Medium dilution, 0.013 M): 3.07 gm | Shoots (gm) (Rice [4]; Medium dilution, 0.013 M): 1.84 gm | Total (gm) (Rice [4]; Medium dilution, 0.013 M): 4.91 gm | crown roots on plants grown from treated seeds (Corn [5]): crown roots were noticed | Root/Shoot Ratio (Corn [5]; High dilution, 0.068 M): 1.09 | Roots (gm) (Corn [5]; High dilution, 0.068 M): 9.60 gm | Shoots (gm) (Corn [5]; High dilution, 0.068 M): 8.80 gm | Total (gm) (Corn [5]; High dilution, 0.068 M): 18.40 gm | Root/Shoot Ratio (Corn [5]; Low dilution, 0.0013 M): 1.04 | Roots (gm) (Corn [5]; Low dilution, 0.0013 M): 9.80 gm | Shoots (gm) (Corn [5]; Low dilution, 0.0013 M): 9.40 gm | Total (gm) (Corn [5]; Low dilution, 0.0013 M): 19.20 gm | Root/Shoot Ratio (Corn [5]; Medium dilution, 0.013 M): 1.08 | Roots (gm) (Corn [5]; Medium dilution, 0.013 M): 10.40 gm | Shoots (gm) (Corn [5]; Medium dilution, 0.013 M): 9.60 gm | Total (gm) (Corn [5]; Medium dilution, 0.013 M): 20.00 gm | Percent Change v. Control, Roots (Peanuts [6]): 17% | Percent Change v. Control, Shoots (Peanuts [6]): 31% | Percent Change v. Control, Total (Peanuts [6]): 24% | Root/Shoot Ratio (Peanuts [6]): 0.98 | Roots (gm), Average (Peanuts [6]; average of samples): 19.93 gm | Shoots (gm), Average (Peanuts [6]; average of samples): 20.30 gm | Total (gm), Average (Peanuts [6]; average of samples): 40.23 gm | Roots (gm) (Peanuts [6]; single sample (pot)): 20.11 gm and 22.04 gm and 21.60 gm and 16.74 gm and 16.46 gm and 22.65 gm | Shoots (gm) (Peanuts [6]; single sample (pot)): 20.46 gm and 22.34 gm and 19.03 gm and 17.77 gm and 20.20 gm and 22.00 gm | Total (gm) (Peanuts [6]; single sample (pot)): 40.57 gm and 44.38 gm and 40.63 gm and 34.51 gm and 36.66 gm and 44.65 gm | Percent Change v. Control, Roots (Wheat [7]): 117% | Percent Change v. Control, Shoots (Wheat [7]): 266% | Percent Change v. Control, Total (Wheat [7]): 135% | Root/Shoot Ratio (Wheat [7]): 4.39 | Roots (gm), Average (Wheat [7]; average of samples): 45.40 gm | Shoots (gm), Average (Wheat [7]; average of samples): 10.35 gm | Total (gm), Average (Wheat [7]; average of samples): 55.74 gm | Percent Change v. Control, Roots (Corn [8]): 30% | Percent Change v. Control, Shoots (Corn [8]): 16% | Percent Change v. Control, Total (Corn [8]): 24% | Root/Shoot Ratio (Corn [8]): 1.80 | Roots (gm), Average (Corn [8]; average of samples): 58.92 gm | Shoots (gm), Average (Corn [8]; average of samples): 32.73 gm | Total (gm), Average (Corn [8]; average of samples): 91.65 gm | increase in yield (Rice [9]): 25%
